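Compound exposure: 48 hours, 5 concentrations, 96-well plates. TGI: total growth inhibition.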
Tests used:
Assay in all cases: NCI-60 cell line screen, 48 h
[1] = tested on: 786-0 renal
[2] = tested on: A498 renal
[3] = tested on: A549 NSCLC
[4] = tested on: ACHN renal
[5] = tested on: BT-549 breast
[6] = tested on: CAKI-1 renal
[7] = tested on: CCRF-CEM leukemia
[8] = tested on: COLO 205 colon
[9] = tested on: DU-145 prostate
[10] = tested on: EKVX NSCLC
[11] = tested on: HCC-2998 colon
[12] = tested on: HCT-116 colon
[13] = tested on: HCT-15 colon
[14] = tested on: HL-60(TB) leukemia
[15] = tested on: HOP-62 NSCLC
[16] = tested on: HOP-92 NSCLC
[17] = tested on: HS 578T breast
[18] = tested on: HT29 colon
[19] = tested on: IGROV1 ovarian
[20] = tested on: K-562 leukemia
[21] = tested on: KM12 colon
[22] = tested on: LOX IMVI melanoma
[23] = tested on: M14 melanoma
[24] = tested on: MALME-3M melanoma
[25] = tested on: MCF7 breast
[26] = tested on: MDA-MB-231 breast
[27] = tested on: MDA-MB-435
[28] = tested on: MDA-N
[29] = tested on: MOLT-4 leukemia
[30] = tested on: NCI-H226 lung
[31] = tested on: NCI-H23 lung
[32] = tested on: NCI-H460 lung
[33] = tested on: NCI-H522 lung
[34] = tested on: NCI/ADR-RES ovarian
[35] = tested on: OVCAR-3 ovarian
[36] = tested on: OVCAR-4 ovarian
[37] = tested on: OVCAR-5 ovarian
[38] = tested on: OVCAR-8 ovarian
[39] = tested on: PC-3 prostate
[40] = tested on: RPMI-8226 leukemia
[41] = tested on: RXF 393 renal
[42] = tested on: SF-268 CNS
[43] = tested on: SF-295 CNS
[44] = tested on: SF-539 CNS
[45] = tested on: SK-MEL-2 melanoma
[46] = tested on: SK-MEL-28 melanoma
[47] = tested on: SK-MEL-5 melanoma
[48] = tested on: SK-OV-3 ovarian
[49] = tested on: SN12C renal
[50] = tested on: SNB-19 CNS
[51] = tested on: SNB-75 CNS
[52] = tested on: SR leukemia
[53] = tested on: SW-620 colon
[54] = tested on: T-47D breast
[55] = tested on: TK-10 renal
[56] = tested on: U251 CNS
[57] = tested on: UACC-257 melanoma
[58] = tested on: UACC-62 melanoma
[59] = tested on: UO-31 renal

Cc1ccc([N+](=O)[O-])c2c(NCCNC(=O)c3cc(C(=O)NCCNc4ccnc5c(C)ccc([N+](=O)[O-])c45)n(C)n3)ccnc12
TGI [1]: 98.2 µM | TGI [2]: > 100 µM | TGI [3]: > 68.8 µM | TGI [4]: > 100 µM | TGI [5]: > 100 µM | TGI [6]: > 100 µM | TGI [7]: > 46.4 µM | TGI [8]: > 100 µM | TGI [9]: > 100 µM | TGI [10]: > 100 µM | TGI [11]: > 100 µM | TGI [12]: > 100 µM | TGI [13]: > 100 µM | TGI [14]: > 76.1 µM | TGI [15]: > 71.2 µM | TGI [16]: > 100 µM | TGI [17]: > 100 µM | TGI [18]: > 100 µM | TGI [19]: > 100 µM | TGI [20]: > 76.4 µM | TGI [21]: > 100 µM | TGI [22]: > 64.7 µM | TGI [23]: > 100 µM | TGI [24]: > 73.2 µM | TGI [25]: > 21.5 µM | TGI [26]: > 84.8 µM | TGI [27]: > 56.1 µM | TGI [28]: > 58 µM | TGI [29]: > 46.4 µM | TGI [30]: > 100 µM | TGI [31]: > 100 µM | TGI [32]: > 100 µM | TGI [33]: > 100 µM | TGI [34]: > 100 µM | TGI [35]: > 100 µM | TGI [36]: > 73.3 µM | TGI [37]: > 100 µM | TGI [38]: > 100 µM | TGI [39]: > 100 µM | TGI [40]: 78.3 µM | TGI [41]: > 100 µM | TGI [42]: > 100 µM | TGI [43]: > 100 µM | TGI [44]: > 100 µM | TGI [45]: > 100 µM | TGI [46]: > 78 µM | TGI [47]: 58 µM | TGI [48]: > 100 µM | TGI [49]: > 70.9 µM | TGI [50]: > 100 µM | TGI [51]: > 87.3 µM | TGI [52]: > 82 µM | TGI [53]: 53.4 µM | TGI [54]: > 100 µM | TGI [55]: > 100 µM | TGI [56]: > 100 µM | TGI [57]: > 100 µM | TGI [58]: > 83 µM | TGI [59]: > 100 µM
